From patent US8012979B2, “Compounds and their uses 707” (AstraZeneca AB, priority 2007, dated 2011)

molecular target: T1, human active recombinant p38α-6His tagged (Homo sapiens, UniProt Q16539); experiment: p38 Alpha Enzyme Assay (AlphaScreen, biotinylated-ATF2 substrate); format: biochemical; details: pre-incubated 4 hours at 37° C., reaction initiated with ATP; 0.5 nM enzyme; read-out: p38 pIC50 (converted)
T1 construct: 6His
T1 sequence (Q16539 whole entry): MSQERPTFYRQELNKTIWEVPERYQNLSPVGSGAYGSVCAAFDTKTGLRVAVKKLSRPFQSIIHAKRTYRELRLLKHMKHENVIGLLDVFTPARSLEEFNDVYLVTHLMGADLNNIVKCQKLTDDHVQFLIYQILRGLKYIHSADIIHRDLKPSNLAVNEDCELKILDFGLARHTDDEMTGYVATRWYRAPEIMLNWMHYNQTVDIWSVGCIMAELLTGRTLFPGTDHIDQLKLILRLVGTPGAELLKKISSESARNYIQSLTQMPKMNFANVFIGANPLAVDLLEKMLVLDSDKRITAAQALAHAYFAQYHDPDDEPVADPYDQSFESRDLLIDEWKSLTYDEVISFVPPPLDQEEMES

Question: With `Cc1ccc(C(=O)NC2CC2)cc1-c1ccc2c(=O)n(Cc3ccccc3)cc(C(=O)NCCN(C)C)c2c1` [Example 47, 2-Benzyl-6-(5-(cyclopropylcarbamoyl)-2-methylphenyl)-N-(2-(dimethylamino)ethyl)-1-oxo-1,2-dihydroisoquinoline-4-carboxamide] as the compound, how does the IC50 read?
Answer: 1.26 nM

Question: Which IC50 does the source give for `CNCCOc1cccc(Cn2ccc3cc(-c4cc(C(=O)NC5CC5)ccc4C)ccc3c2=O)c1` [Example 34, N-Cyclopropyl-4-methyl-3-(2-{3-[2-(methylamino)ethoxy]benzyl}-1-oxo-1,2-dihydroisoquinolin-6-yl)benzamide] here?
Answer: 2.51 nM

Question: With `Cc1ccc(C(=O)NC2CC2)cc1-c1ccc2c(=O)n(Cc3ccccc3)cc(C(=O)NC3CCN(C)CC3)c2c1` [Example 50, 2-Benzyl-6-{5-[(cyclopropylamino)carbonyl]-2-methylphenyl}-N-(1-methylpiperidin-4-yl)-1-oxo-1,2-dihydroisoquinoline-4-carboxamide] as the compound, how does the IC50 read?
Answer: 2 nM

Question: Which IC50 does the source give for `Cc1c(F)cc(C(=O)NC2CC2)cc1-c1ccc2c(=O)n(CC3CC3)cc(CNCCCN(C)C)c2c1` [Example 77, N-Cyclopropyl-3-(2-(cyclopropylmethyl)-4-((3-(dimethylamino)propylamino)methyl)-1-oxo-1,2-dihydroisoquinolin-6-yl)-5-fluoro-4-methylbenzamide] here?
Answer: 1.58 nM

Question: With `Cc1ccc(C(=O)NC2CC2)cc1-c1ccc2c(=O)n(Cc3ccc(S(C)(=O)=O)cc3)cc(CN3CCCN(C)CC3)c2c1` [Example 103, N-Cyclopropyl-4-methyl-3-(4-((4-methyl-1,4-diazepan-1-yl)methyl)-2-(4-(methylsulfonyl)benzyl)-1-oxo-1,2-dihydroisoquinolin-6-yl)benzamide] as the compound, how does the IC50 read?
Answer: 0.126 nM

Question: For `Cc1ccc(C(=O)NC2CC2)cc1-c1ccc2c(=O)n(Cc3cccc(OCCCN(C)C)c3)c(C)cc2c1` [Example 94, N-Cyclopropyl-3-(2-(3-(3-(dimethylamino)propoxy)benzyl)-3-methyl-1-oxo-1,2-dihydroisoquinolin-6-yl)-4-methylbenzamide], which IC50 is on record?
Answer: 3.16 nM

Question: For `Cc1c(F)cc(C(=O)NC2CC2)cc1-c1ccc2c(=O)n(CC3CC3)cc(CN3C[C@@H](N)C[C@@H]3CO)c2c1` [Example 119, 3-(4-(((2R,4S)-4-Amino-2-(hydroxymethyl)pyrrolidin-1-yl)methyl)-2-(cyclopropylmethyl)-1-oxo-1,2-dihydroisoquinolin-6-yl)-N-cyclopropyl-5-fluoro-4-methylbenzamide], which IC50 is on record?
Answer: 0.398 nM

Question: With `Cc1c(F)cc(C(=O)NC2CC2)cc1-c1ccc2c(=O)n(Cc3ccccc3)cc(C(=O)NCCN(C)C)c2c1` [Example 60, 2-Benzyl-6-(5-(cyclopropylcarbamoyl)-3-fluoro-2-methylphenyl)-N-(2-(dimethylamino)ethyl)-1-oxo-1,2-dihydroisoquinoline-4-carboxamide] as the compound, how does the IC50 read?
Answer: 0.398 nM

Question: Which IC50 does the source give for `Cc1ccc(C(=O)NC2CC2)cc1-c1ccc2c(=O)n(CC3CC3)cc(CN3CCCN(C)CC3)c2c1` [Example 59, N-Cyclopropyl-3-[2-cyclopropylmethyl-4-(4-methyl-[1,4]diazepan-1-ylmethyl)-1-oxo-1,2-dihydro-isoquinolin-6-yl]-4-methyl-benzamide] here?
Answer: 0.316 nM

Question: Which IC50 does the source give for `Cc1c(F)cc(C(=O)NC2CC2)cc1-c1ccc2c(=O)n(CC3CC3)cc(CN3CCN[C@@H](CO)C3)c2c1` [Example 85, (R)—N-Cyclopropyl-3-(2-(cyclopropylmethyl)-4-((3-(hydroxymethyl)piperazin-1-yl)methyl)-1-oxo-1,2-dihydroisoquinolin-6-yl)-5-fluoro-4-methylbenzamide] here?
Answer: 0.0398 nM

Question: For `Cc1c(F)cc(C(=O)NC2CC2)cc1-c1ccc2c(=O)n(CC3CC3)cc(CN3CCC(NC(C)C)CC3)c2c1` [Example 84, N-Cyclopropyl-3-(2-(cyclopropylmethyl)-4-((4-(isopropylamino)piperidin-1-yl)methyl)-1-oxo-1,2-dihydroisoquinolin-6-yl)-5-fluoro-4-methylbenzamide], which IC50 is on record?
Answer: 0.2 nM

Question: With `CONC(=O)c1ccc(C)c(-c2ccc3c(=O)n(Cc4ccc(C5=CCNCC5)cc4)ccc3c2)c1` [Example 9, N-Methoxy-4-methyl-3-[1-oxo-2-[4-(1,2,3,6-tetrahydro-pyridin-4-yl)-benzyl]-1,2-dihydro-isoquinolin-6-yl]-benzamide] as the compound, how does the IC50 read?
Answer: 0.2 nM

Question: With `Cc1ccc(C(=O)NC2CC2)cc1-c1ccc2c(=O)n(Cc3ccccc3)cc(C(=O)NCCCN(C)C)c2c1` [Example 51, 2-Benzyl-6-{5-[(cyclopropylamino)carbonyl]-2-methylphenyl}-N-[3-(dimethylamino)propyl]-1-oxo-1,2-dihydroisoquinoline-4-carboxamide] as the compound, how does the IC50 read?
Answer: 2 nM

Question: For `Cc1ccc(C(=O)NC2CC2)cc1-c1ccc2c(=O)n(Cc3ccc(C(=O)NCCCN4CCCC4)cc3)ccc2c1` [Example 24, N-Cyclopropyl-4-methyl-3-(1-oxo-2-(4-(3-(pyrrolidin-1-yl)propylcarbamoyl)benzyl)-1,2-dihydroisoquinolin-6-yl)benzamide], which IC50 is on record?
Answer: 0.631 nM

Question: With `Cc1ccc(C(=O)NC2CC2)cc1-c1ccc2c(=O)n(Cc3ccncc3)cc(C(=O)NC3CCNCC3)c2c1` [Example 57, 6-(5-Cyclopropylcarbamoyl-2-methyl-phenyl)-1-oxo-2-pyridin-4-ylmethyl-1,2-dihydro-isoquinoline-4-carboxylic acid piperidin-4-ylamide] as the compound, how does the IC50 read?
Answer: 1.58 nM

Question: For `Cc1c(F)cc(C(=O)NC2CC2)cc1-c1ccc2c(=O)n(CC3CC3)cc(CN3CCNCC3)c2c1` [Example 88, N-Cyclopropyl-3-(2-(cyclopropylmethyl)-1-oxo-4-(piperazin-1-ylmethyl)-1,2-dihydroisoquinolin-6-yl)-5-fluoro-4-methylbenzamide], which IC50 is on record?
Answer: 0.0631 nM

Question: Which IC50 does the source give for `Cc1c(F)cc(C(=O)NC2CC2)cc1-c1ccc2c(=O)n(CC3CC3)cc(CN3CCCN(C)CC3)c2c1` [Example 75, N-Cyclopropyl-3-(2-(cyclopropylmethyl)-4-((4-methyl-1,4-diazepan-1-yl)methyl)-1-oxo-1,2-dihydroisoquinolin-6-yl)-5-fluoro-4-methylbenzamide] here?
Answer: 0.0501 nM

Question: With `Cc1ccc(C(=O)NC2CC2)cc1-c1ccc2c(=O)n(Cc3ccc(OCCN(C)C)nc3)ccc2c1` [Example 30, N-Cyclopropyl-3-(2-((6-(2-(dimethylamino)ethoxy)pyridin-3-yl)methyl)-1-oxo-1,2-dihydroisoquinolin-6-yl)-4-methylbenzamide] as the compound, how does the IC50 read?
Answer: 1 nM

Question: Which IC50 does the source give for `Cc1c(F)cc(C(=O)NC2CC2)cc1-c1ccc2c(=O)n(CC3CC3)cc(CN3CCC(N)CC3)c2c1` [Example 83, 3-(4-((4-Aminopiperidin-1-yl)methyl)-2-(cyclopropylmethyl)-1-oxo-1,2-dihydroisoquinolin-6-yl)-N-cyclopropyl-5-fluoro-4-methylbenzamide] here?
Answer: 0.0794 nM

Question: With `Cc1c(F)cc(C(=O)NC2CC2)cc1-c1ccc2c(=O)n(CC3CC3)cc(CN3C[C@@H]4C[C@H]3CN4)c2c1` [Example 111, 3-(4-((1S,4S)-2,5-Diazabicyclo[2.2.1]heptan-2-ylmethyl)-2-(cyclopropylmethyl)-1-oxo-1,2-dihydroisoquinolin-6-yl)-N-cyclopropyl-5-fluoro-4-methylbenzamide] as the compound, how does the IC50 read?
Answer: 0.1 nM

test system: not listed separately; experiment: GVS (Dynamic Vapour Sorption) determination; format: physicochemical; details: at 80% RH (±0.2%); crystalline polymorph A
Description: GVS profiles were measured using a Dynamic Vapour Sorption DVS-1 instrument. The solid sample ca. 1-5 mg was placed into a glass vessel and the weight of the sample was recorded during a dual cycle step method (40 to 90 to 0 to 90 to 0% relative humidity (RH), in steps of 10% RH).

Question: Which GVS weight increase does the source give for `Cc1ccc(C(=O)NC2CC2)cc1-c1ccc2c(=O)n(Cc3ccccc3)cc(C(=O)NCCN(C)C)c2c1` [Example 47, 2-Benzyl-6-(5-(cyclopropylcarbamoyl)-2-methylphenyl)-N-(2-(dimethylamino)ethyl)-1-oxo-1,2-dihydroisoquinoline-4-carboxamide] here?
Answer: 0.9 % w/w
